For series [1], the system named is Hepatitis B virus. As to the kind of experiment: Antiviral efficacy in HBV-infected primary human hepatocytes (HBV-PHH): HBsAg, HBeAg, HBV DNA, 3.5 kb RNA, rebound. It counts as cell-based. The conditions noted are these: PHH co-culture, transfection at days 4 and 11; lamivudine 8 days then discontinued.
Series [2] deals with HBV cccDNA. Description: cccDNA editing in HBV-infected HepG2-NTCP cells (NGS on enriched cccDNA). It counts as cell-based, Hepatitis B virus. The settings on record: for improvement in base editing efficiency by lamivudine pretreatment: HepG2-NTCP, 3-day pretreatment (8-day total), BE4 mRNA + gRNAs 37 and 40. The text has this:
Experiments were completed using guide RNA's listed in Table 1 to identify combinations of guide RNA's effective in treating HBV-infected cells. HepG2-NTCP cells were transfected with mRNA encoding BE4 and a guide RNA(s) selected from gRNA12, gRNA37, gRNA19, gRNA190, and gRNA40. HepG2-NTCP cells are described in Sun, et al. “NTCP-Reconstituted In Vitro HBV Infection System,” Methods Mol. Biol. 1540:1-14 (2017), DOI: 10.1007/978-1-4939-6700-1_1, the disclosure of which is incorporated herein by reference in its entirety for all purposes. Cells were infected at day 0 with HBV and then transfected with the mRNA and gRNA(s) at day 4, see FIG. 6. Measurements of HBsAg, HBeAg, total HBV DNA, and 3.5 kb viral DNA were taken at day 14, see FIG. 6. The guide RNA, gRNA37, targeted HBsAg and gRNA40 targeted the HBV core protein, see FIG. 7. The use of gRNA37 was associated with a reduction in HBsAg levels and the use of gRNA40 was associated with a reduction in HBeAg levels, see FIG. 8. Also, each of gRNA37 and gRNA40 was associated with a lowering of total HBV DNA and 3.5 kb RNA levels.
(§1) Having identified gRNA37 and gRNA40 as effective gRNAs, the antiviral efficacy of a base editor system containing BE4, gRNA37 and gRNA40 (i.e., multiplexing gRNAs) was evaluated, FIGS. 8-10. It was determined that the base editor system multiplexed with the two gRNAs was associated with a reduction of HBV viral parameters in HepG2-NTCP cells, see FIG. 9. […] For the evaluation of editing of cccDNA, the cccDNA was enriched via Hirt extraction and ExoI/ExoIII nuclease treatment to remove rcDNA (relaxed circular DNA). Throughout the Examples provided herein, editing of cccDNA was evaluated using next generation sequencing completed using cccDNA enriched in this way.
HepG2-NTCP cells were infected with HBV at day 0, at day 4 an 8-day treatment with lamivudine commenced (which included a 3-day pretreatment period within the 8-day total), at day 7 cells were transfected with mRNA encoding BE4 and gRNAs 37 and 40, and measurements were taken at day 15. […]

Series [3] relates to HBV cccDNA. Description: Base editing of HBV cccDNA in primary human hepatocytes (HBV-PHH). The conditions noted are these: PHH, BE4 + gRNA37 + gRNA40. It counts as cell-based, Hepatitis B virus.
From the text: Base editor systems comparing guide RNAs evaluated in Example 1 were subsequently tested for anti-viral and editing efficacy using the Hepatitis B virus-primary human hepatocyte (HBV-PHH) system. Cells were transfected with the guide RNAs and mRNAs encoding the base editor as described in Example 1. […] Guide RNAs ABE-133, MSPbeam94, and ABE-85 were associated with a 70-80% reduction of HBV DNA as compared to controls. The guide RNAs PolyA-NGC1 and PolyA-NGC2 were associated with high editing followed by 90% efficacy in reduction of HbeAg.
as §1
The design of the experiments is described schematically in FIG. 14. Primary human hepatocyte (PHH) cells were infected with HBV at day 0. At days 4 and 11, the cells were transfected with mRNA encoding BE4 and with gRNA37 and gRNA40. Measurements of HBV DNA were taken over time, and measurements of HBsAg, HBeAG, HBV total DNA, 3.5 kb RNA, and cccDNA editing were taken at day 25. The experiments were carried out using a PHH co-culture system available from PhoenixBio. The PHH co-culture system maintained hepatocyte differentiation and metabolic activity for over 30 days. The HBV infection in the cells was persistent and a cccDNA level was maintained.
The design of the experiments is described schematically in FIG. 18. Primary human hepatocyte (PHH) cells were infected with HBV at day 0, at day 4 an 8-day. Treatment with lamivudine commenced (which included a 3-day pretreatment period within the 8-day total), and cells were transfected with mRNA encoding BE4 and the gRNAs gRNA37 and gRNA40 at days 7 and 14. HBV DNA levels were measured over time, and additional HBV markers were measured at day 21.
Primary hepatocytes (PHH) co-cultures infected with HBV were used to test antiviral efficacy of base editing systems. Primary hepatocyte co-culture (PHH) infected with HBV virus is a clinically relevant system for assessing anti-viral activity of base editing systems. The base editing reagents (mRNA encoding a base editor(s) and synthetic gRNA) were transfected via lipofection twice over the course of two weeks. The first transfection was performed about 3, 4, or 7 days after infection (days post infection (dpi)). Not being bound by theory, this 3-to-7-day period ensured that the cccDNA was completely formed at the time of the transfection. The second transfection was at about 7, 10, 11, or 14 days after infection. Extracellular parameters (e.g., HBsAg, HBeAg, and HBV DNA) were monitored over the course of the experiment (including the end of the experiment) and intracellular parameters (HBV DNA, viral RNA, and editing) were measured at the end of the experiment. Cells were lysed at the termination of the experiment (e.g., at 15, 17, 21, or 25 days).
Transfection details: RNA format, 800 ng total RNA per well in a 24 well plate (600 ng base editor-encoding mRNA+200 ng gRNA) transfected via lipofection (lipofectamin messengerMax, thermofisher Scientific) according to the vendor protocol.

Series [4] concerns HBV-infected cells. As to the kind of experiment: Base editors with reduced off-target activity (BE4, ppApo, rrA3F): editing and HBsAg in HBV-infected cells. The conditions noted are these: base editor in combination with gRNA37 and gRNA40. In kind it is cell-based, Hepatitis B virus. The text has this: FIG. 22 provides a bar graph showing base editing at the sites targeted by gRNA37 and gRNA40. Cells were contacted with BE4, ppApo, or rrA3F in combination with gRNA37 and gRNA40.
Thus, all three base editor systems had antiviral activity. The negative control (HBV) was untreated cells and the control (contr) was gRNA targeting the PCSK9 gene.
It may be advantageous to use base editors that have reduced off-target activity and lower non-specific effects (e.g., as compared to BE4) without compromising editing efficiencies. Thus, experiments were undertaken to evaluate the antiviral efficacy of base editor systems containing ppApo or rrA3F, which are described in Yu, et al. “Cytoxine base editors with minimized unguided DNA and RNA off-target events and high on-target activity,” Nature Communications, 11:2052 (2020), DOI: 10.1038/s41467-020-15887-5, the disclosure of which is incorporated herein by reference in its entirety for all purposes.

In series [5] the test system is naturally integrated HBV genome in PLC/PRF/5. As to the kind of experiment: Editing of naturally integrated HBV genome in PLC/PRF/5 cells. It counts as cell-based, Hepatitis B virus. The settings on record: BE4 + gRNA. The text has this: This editing reduced HBsAg secretion (FIG. 34B).
Series [6] has as its system HBsAg. The conditions noted are these: PLC/PRF/5 cells, BE4 + gRNA, 6th day post-transfection.

The source of these data is patent US20240294914A1, “COMPOSITIONS AND METHODS FOR TREATING HEPATITIS B VIRUS INFECTION” (priority 2021, published 2024).

With `Nc1ccn([C@@H]2CS[C@H](CO)O2)c(=O)n1` [lamivudine, 2′,3′-dideoxy-3′-thiacytidine 4-Amino-1-[(2R,5S)-2-(hydroxymethyl)-1,3-oxathiolan-5-yl]-1,2-dihydropyrimidin-2-one], in series [1], the “HBV rebound (extracellular HBV DNA, qPCR in supernatant)” value is “rebounded”. Moreover, the “improvement in base editing efficiency by lamivudine pretreatment” value in series [2] is “about 20%”; in series [2] (listed as Lamivudine), 20%. Also, in series [2] (gRNA B+gRNA H with BE4), the “functional editing by NGS on cccDNA enriched samples in the presence of 3TC” value is “Higher editing efficiency”. Moreover, the “editing in primary hepatocytes with lamivudine pretreatment” value in series [3] was “improved editing”.

Turning to “BE4: cytidine base editor polypeptide, SEQ ID NO: 10832, delivered as mRNA”, in series [4], the HBsAg levels result is recorded as “reductions”; the “editing efficiencies at the sites targeted by gRNA37 and gRNA40” value is listed as “comparable editing efficiencies”.

For the compound “MSPbeam37-PLC: guide RNA with spacer sequence SEQ ID NO. 10834, single nucleobase change relative to MSPbeam37 (guide GAAAGCCCAAGAUGAUGGGA; guide RNA scaffold, chemistry not fully specified)”, the “editing of the naturally integrated HBV genome” value in series [5] is listed as “edited”. In series [6], the “extracellular HBsAg (secretion)” value was “reduced”.
